The first experiment relates to ring stage parasites. In words: Parasite growth potency assay, 72 hours, LDH readout. It is filed as cell-based. Particulars: 72 h. An outline of the steps:
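Parasite growth was quantified by LDH assay after a −80 °C freeze-thaw. Before that, compound was incubated for 72 h at 37 °C under humidified gas with ring-stage cultures adjusted to 0.7% parasitemia and 2% haematocrit in serum- and albumax-supplemented RPMI-Hepes.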
As for `CCC1(CC)CC(=O)N([C@@H](c2cccc(OS(=O)(=O)F)c2)c2cccc(C(=O)N[C@H]3CCOc4ccccc43)c2)C(=N)N1` [Example 149B, [1-[[3-[[(4S)-chroman-4-yl]carbamoyl]phenyl]-(3-fluorosulfonyloxyphenyl)methyl]-4,4-diethyl-6-oxo-hexahydropyrimidin-2-ylidene]ammonium; 2,2,2-trifluoroacetate], the EC50 (usually the concentration needed to bring the measured effect to its halfway point) stood at 57.6 nM.

Staying with this experiment, now noted: 72 h, parasite growth measured by LDH assay after 72 hours at 37° C.; 0.7% rings, 2% haematocrit; read-out: EC50.
In the case of `CC[C@@]1(C(C)C)CC(=O)N(Cc2cc(F)cc(C(=O)N[C@@H]3c4ccccc4C[C@H]3O)c2)C(=N)N1` [Example 61, [(4S)-4-ethyl-1-[[3-fluoro-5-[[(1R,2R)-2-hydroxyindan-1-yl]carbamoyl]phenyl]methyl]-4-isopropyl-6-oxo-hexahydropyrimidin-2-ylidene]ammonium; 2,2,2-trifluoroacetate], the EC50 was 6.1 nM.

Turning to `CC1(C)CC(=O)N(Cc2cc(F)cc(C(=O)N[C@@H]3c4cc(F)ccc4OC(C)(C)[C@H]3O)c2)C(=N)N1` (stereo in doubt) [Example 197, [1-[[3-fluoro-5-[(6-fluoro-3-hydroxy-2,2-dimethyl-chroman-4-yl)carbamoyl]phenyl]methyl]-4,4-dimethyl-6-oxo-hexahydropyrimidin-2-ylidene]ammonium; 2,2,2-trifluoroacetate], the EC50 stood at 3.4 nM.

Regarding `CCC1(CC)CC(=O)N([C@H](COCCOC)c2cccc(C(=O)NC3c4ccccc4CC3(C)O)c2)C(=N)N1` (stereo partly drawn) [Example 146A, 3-[(1S)-1-(4,4-diethyl-2-imino-6-oxo-hexahydropyrimidin-1-yl)-2-(2-methoxyethoxy)ethyl]-N-(2-hydroxy-2-methyl-indan-1-yl)benzamide], the concentration for a half-maximal effect (EC50) is 5.3 nM.

As to `CCC1(CC)CC(=O)N([C@H](C)c2cccc(C(=O)N[C@@H]3c4ccccc4OC(C)(C)[C@@]3(C)O)c2)C(=N)N1` [Example 228, 3-[(1R)-1-(4,4-diethyl-2-imino-6-oxo-hexahydropyrimidin-1-yl)ethyl]-N-[(3S,4R)-3-hydroxy-2,2,3-trimethyl-chroman-4-yl]benzamide], the EC50 amounted to 0.34 nM.

Regarding `CCC1(CC)CC(=O)N(Cc2cccc(C(=O)N[C@H]3CC(C)(C)Oc4c3ccc(F)c4F)c2)C(=N)N1` (stereo in doubt) [Example 117, [1-[[3-[(7,8-difluoro-2,2-dimethyl-chroman-4-yl)carbamoyl]phenyl]methyl]-4,4-diethyl-6-oxo-hexahydropyrimidin-2-ylidene]ammonium; 2,2,2-trifluoroacetate], the EC50 worked out at 1.5 nM.

Regarding `CCC1(CC)CC(=O)N([C@H](COCCOC)c2cccc(C(=O)N[C@@H]3c4ccccc4C[C@H]3O)c2)C(=N)N1` [Example 140, [4,4-diethyl-1-[(1S)-1-[3-[[(1R,2R)-2-hydroxyindan-1-yl]carbamoyl]phenyl]-2-(2-methoxyethoxy)ethyl]-6-oxo-hexahydropyrimidin-2-ylidene]ammonium; 2,2,2-trifluoroacetate], the EC50 is 3.2 nM.

In the case of `CC[C@@]1(C(F)(F)F)CC(=O)N(Cc2cc(F)cc(C(=O)N[C@H]3CCOc4ccccc43)c2)C(=N)N1` [Example 63, [(4S)-1-[[3-[[(4S)-chroman-4-yl]carbamoyl]-5-fluoro-phenyl]methyl]-4-ethyl-6-oxo-4-(trifluoromethyl)hexahydropyrimidin-2-ylidene]ammonium; 2,2,2-trifluoroacetate], the EC50 came out at 80.2 nM.

For `COCC[C@H](c1cccc(C(=O)N[C@@H]2c3ccccc3C[C@H]2O)c1)N1C(=N)NC(C)(C)CC1=O` [Example 179, [1-[(1R)-1-[3-[[(1R,2R)-2-hydroxyindan-1-yl]carbamoyl]phenyl]-3-methoxy-propyl]-4,4-dimethyl-6-oxo-hexahydropyrimidin-2-ylidene]ammonium; 2,2,2-trifluoroacetate], the EC50 was 8.3 nM.

For the molecule `CC1(C)CC(=O)N(Cc2cccc(C(=O)N[C@H]3CC(C)(C)Oc4ccccc43)c2)C(=N)N1` [Example 198, [1-[[3-[[(4S)-2,2-dimethylchroman-4-yl]carbamoyl]phenyl]methyl]-4,4-dimethyl-6-oxo-hexahydropyrimidin-2-ylidene]ammonium; 2,2,2-trifluoroacetate], the EC50 amounted to 17 nM.

With `CCC1(CC)CC(=O)N([C@H](CCOC)c2cccc(C(=O)N[C@@H]3c4ccccc4C4(CC4)[C@H]3O)c2)C(=N)N1` [Example 191A, [4,4-diethyl-1-[(1R)-1-[3-[(2′-hydroxyspiro[cyclopropane-1,3′-indane]-1′-yl)carbamoyl]phenyl]-3-methoxy-propyl]-6-oxo-hexahydropyrimidin-2-ylidene]ammonium; 2,2,2-trifluoroacetate], the EC50 is 0.7 nM.

For the molecule `CCC1(CC)CC(=O)N([C@H](CCC#N)c2cccc(C(=O)N[C@H]3CCOc4ccccc43)c2)C(=N)N1` [Example 73A, [1-[1-[3-[[(4S)-chroman-4-yl]carbamoyl]phenyl]-3-cyano-propyl]-4,4-diethyl-6-oxo-hexahydropyrimidin-2-ylidene]ammonium; 2,2,2-trifluoroacetate], the EC50 is 0.7 nM.

As to `CCC1(CC)CC(=O)N(Cc2cccc(C(=O)N[C@@H]3c4ccccc4OC(C)(C)C3(C)O)c2)C(=N)N1` (stereo in doubt) [Example 184, 3-[(4,4-diethyl-2-imino-6-oxo-hexahydropyrimidin-1-yl)methyl]-N-(3-hydroxy-2,2,3-trimethyl-chroman-4-yl)benzamide], the EC50 was found to be 1.5 nM.

Take `CC[C@]1(C(C)C)CC(=O)N(Cc2cc(F)cc(C(=O)N[C@H]3CCOc4ccccc43)c2)C(=N)N1` [Example 44, [(4R)-1-[[3-[[(4S)-chroman-4-yl]carbamoyl]-5-fluoro-phenyl]methyl]-4-ethyl-4-isopropyl-6-oxo-hexahydropyrimidin-2-ylidene]ammonium; 2,2,2-trifluoroacetate]: the EC50 turned out to be 2.6 nM.

In the case of `COCC[C@H](c1cc(F)cc(C(=O)N[C@@H]2c3ccccc3OC(C)(C)[C@H]2O)c1)N1C(=N)NC(C)(C)CC1=O` [Example 174, [1-[1-[3-fluoro-5-[[(3S,4R)-3-hydroxy-2,2-dimethyl-chroman-4-yl]carbamoyl]phenyl]-3-methoxy-propyl]-4,4-dimethyl-6-oxo-hexahydropyrimidin-2-ylidene]ammonium; 2,2,2-trifluoroacetate], the EC50 was 0.9 nM.

Take `CC(C)[C@]1(C)CC(=O)N(Cc2cccc(C(=O)N[C@H]3CCOc4ccccc43)c2)C(=N)N1` [Example 3, [(4S)-1-[[3-[[(4S)-chroman-4-yl]carbamoyl]phenyl]methyl]-4-isopropyl-4-methyl-6-oxo-hexahydropyrimidin-2-ylidene]ammonium; 2,2,2-trifluoroacetate]: the EC50 came out at 6.2 nM.

On to `CCC1(CC)CC(=O)N(C(CCOC)c2ccc(C(F)(F)F)c(C(=O)N[C@@H]3c4ccccc4C[C@]3(C)O)c2)C(=N)N1` (stereo partly drawn) [Example 242, 5-[1-(4,4-diethyl-2-imino-6-oxo-hexahydropyrimidin-1-yl)-3-methoxy-propyl]-N-[(1R,2S)-2-hydroxy-2-methyl-indan-1-yl]-2-(trifluoromethyl)benzamide], for which the EC50 amounted to 2.28 nM.

`CCC1(C)CC(=O)N([C@H](CCOC)c2cccc(C(=O)N[C@@H]3c4ccccc4C[C@H]3O)c2)C(=N)N1` (stereo partly drawn) [Example 195A, [4-ethyl-1-[(1R)-1-[3-[[(1R,2R)-2-hydroxyindan-1-yl]carbamoyl]phenyl]-3-methoxy-propyl]-4-methyl-6-oxo-hexahydropyrimidin-2-ylidene]ammonium; 2,2,2-trifluoroacetate]: the EC50 is 3.3 nM.

Regarding `CCC1(CC)CC(=O)N(Cc2cc(C(=O)N[C@@H]3c4ccccc4OC(C)(C)[C@H]3O)ccn2)C(=N)N1` (stereo in doubt) [Example 133, [4,4-diethyl-1-[[4-[(3-hydroxy-2,2-dimethyl-chroman-4-yl)carbamoyl]pyridin-1-ium-2-yl]methyl]-6-oxo-hexahydropyrimidin-2-ylidene]ammonium; 2,2,2-trifluoroacetate], the EC50 was 3.3 nM.

Regarding `CCC1(CC)CC(=O)N(Cc2cccc(C(=O)N[C@@H]3c4ccccc4C[C@H]3O)c2)C(=N)N1` [Example 15, [4,4-diethyl-1-[[3-[[(1R,2R)-2-hydroxyindan-1-yl]carbamoyl]phenyl]methyl]-6-oxo-hexahydropyrimidin-2-ylidene]ammonium; 2,2,2-trifluoroacetate], the EC50 is 2.6 nM.

For the molecule `CC(C)[C@]1(C)CC(=O)N(Cc2cc(F)cc(C(=O)N[C@@H]3c4ccccc4C[C@H]3O)c2)C(=N)N1` [Example 30, [(4S)-1-[[3-fluoro-5-[[(1R,2R)-2-hydroxyindan-1-yl]carbamoyl]phenyl]methyl]-4-isopropyl-4-methyl-6-oxo-hexahydropyrimidin-2-ylidene]ammonium; 2,2,2-trifluoroacetate], the EC50 was found to be 3.1 nM.

On to `N=C1N[C@@](CC2CC2)(c2ccccc2)CC(=O)N1Cc1cc(F)cc(C(=O)N[C@@H]2CCOc3ccccc32)c1` [Example 5B, [(4R)-1-[[3-[[(4R)-chroman-4-yl]carbamoyl]-5-fluoro-phenyl]methyl]-4-(cyclopropylmethyl)-6-oxo-4-phenyl-hexahydropyrimidin-2-ylidene]ammonium; 2,2,2-trifluoroacetate], for which the EC50 was 57.4 nM.

As for `CCC1(CC)CC(=O)N(Cc2cccc(C(=O)N[C@H]3CC(C)(C)Oc4ccc(F)cc43)c2)C(=N)N1` (stereo in doubt) [Example 88, [4,4-diethyl-1-[[3-[(6-fluoro-2,2-dimethyl-chroman-4-yl)carbamoyl]phenyl]methyl]-6-oxo-hexahydropyrimidin-2-ylidene]ammonium; 2,2,2-trifluoroacetate], the EC50 was determined as 0.4 nM.

With `C[C@H](c1cccc(C(=O)N[C@H]2CCOc3ccccc32)c1)N1C(=N)N[C@@](CC2CC2)(c2ccccc2)CC1=O` [Example 7, [(4R)-1-[1-[3-[[(4S)-chroman-4-yl]carbamoyl]phenyl]ethyl]-4-(cyclopropylmethyl)-6-oxo-4-phenyl-hexahydropyrimidin-2-ylidene]ammonium; 2,2,2-trifluoroacetate], the EC50 came to 39.2 nM.
